In this assay the test system is GDF8 signaling (p-SMAD-3 (Ser423/425)). As to the kind of experiment: AlphaScreen SureFire SMAD3 (p-Ser423/425) assay, GDF8-stimulated cells (GDF pSMAD). Format: cell-based. The settings on record: tested as the salt form given, read-out: GDF pSMAD (MPC11) (μM), inhibition of GDF8 signaling.
Where [1] appears, read: Mus musculus, MPC-11, GDF8-stimulated pSMAD3, MPC11.

Each structure is given as a SMILES string. Where two headings read alike, the source gives them in different places.

For the compound `Fc1cc(-c2ncccc2-c2ccc3ncsc3c2)c(F)c(F)c1F` [compound 1054], under setting [1], the IC50 stood at 0.737 µM.

As for `Fc1cc(F)c(F)c(-c2ncccc2-c2ccc3ncsc3c2)c1` [compound 1055], the IC50 under setting [1] was determined as 0.129 µM.

Turning to `Cc1ccc(Cl)cc1-c1ncccc1-c1ccc2ncsc2c1` [compound 1057], the IC50 under setting [1] worked out at 0.371 µM.

`Cc1cc(-c2ncccc2-c2ccc3ncsc3c2)c(C)cc1F` [compound 1061]: under setting [1], the IC50 is 0.473 µM.

For the compound `Cc1cc(-c2ncccc2-c2ccc3ncc(C#N)n3c2)c(C)cc1F` [compound 1063], the IC50 under setting [1] turned out to be 4.45 µM.

Turning to `Cc1cc(-c2ncccc2-c2ccc3ncnn3c2)c(C)cc1F` [compound 1064], the IC50 under setting [1] came to 0.804 µM.

As for `c1cnc(-c2ccc3occc3c2)c(-c2ccc3ncsc3c2)c1` [compound 1073], the IC50 under setting [1] stood at 0.48 µM.

Consider `c1cnc(-c2cccc3c2OCC3)c(-c2ccc3ncsc3c2)c1` [compound 1076], for which the IC50 under setting [1] is 9.67 µM.

As for `Nc1ncnc2ccc(-c3cccnc3-c3ccc4occc4c3)cc12` [compound 1083], the IC50 under setting [1] is 0.309 µM.

For `CN(C)CCNc1ncnc2ccc(-c3cccnc3-c3cc(Cl)ccc3F)cc12` [compound 1093], the IC50 (GDF8-stimulated pSMAD3, MPC11) came out at 0.2 µM.
